Our source for the IC50 values is patent publication US20240083857A1, “2-Methyl-Quinazolines” (Bayer Pharma Aktiengesellschaft, priority 2017, published 2024).

One may read the IC50 as the concentration needed to halve the response being measured.

The target in test [1] is Epidermal Growth Factor Receptor (EGFR) (Homo sapiens (Human), UniProt P00533). Briefly: EGFR kinase assay (TR-FRET). It counts as biochemical. As to conditions: values given in μM; read-out: EGFR kinase inhibition IC50. A digest of the protocol: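 EGFR purified from A431 cells was preincubated with compound 15 min at 22° C in pH 7.0 Hepes buffer with MgCl2, MnCl2 and vanadate before reaction with a biotinylated peptide. After EDTA stop, phosphopeptide was detected by TR-FRET (anti-phosphotyrosine Tb-cryptate, streptavidin-XL665) as the 665/620 nm emission ratio.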
A general note: In TR-FRET formats the signal depends on donor and acceptor labels being close together.

Test [2] addresses K-Ras^G12C : hSOS1 interaction (Homo sapiens, UniProt Q07889). As to the kind of experiment: Biochemical assay 1: K-Ras^G12C interaction assay with hSOS1 (HTRF). Conditions: read-out: Assay 1 (KRAS-SOS Interaction) activity expressed as IC50. It counts as binding.

Chain of Epidermal Growth Factor Receptor (EGFR) (P00533 25-1210): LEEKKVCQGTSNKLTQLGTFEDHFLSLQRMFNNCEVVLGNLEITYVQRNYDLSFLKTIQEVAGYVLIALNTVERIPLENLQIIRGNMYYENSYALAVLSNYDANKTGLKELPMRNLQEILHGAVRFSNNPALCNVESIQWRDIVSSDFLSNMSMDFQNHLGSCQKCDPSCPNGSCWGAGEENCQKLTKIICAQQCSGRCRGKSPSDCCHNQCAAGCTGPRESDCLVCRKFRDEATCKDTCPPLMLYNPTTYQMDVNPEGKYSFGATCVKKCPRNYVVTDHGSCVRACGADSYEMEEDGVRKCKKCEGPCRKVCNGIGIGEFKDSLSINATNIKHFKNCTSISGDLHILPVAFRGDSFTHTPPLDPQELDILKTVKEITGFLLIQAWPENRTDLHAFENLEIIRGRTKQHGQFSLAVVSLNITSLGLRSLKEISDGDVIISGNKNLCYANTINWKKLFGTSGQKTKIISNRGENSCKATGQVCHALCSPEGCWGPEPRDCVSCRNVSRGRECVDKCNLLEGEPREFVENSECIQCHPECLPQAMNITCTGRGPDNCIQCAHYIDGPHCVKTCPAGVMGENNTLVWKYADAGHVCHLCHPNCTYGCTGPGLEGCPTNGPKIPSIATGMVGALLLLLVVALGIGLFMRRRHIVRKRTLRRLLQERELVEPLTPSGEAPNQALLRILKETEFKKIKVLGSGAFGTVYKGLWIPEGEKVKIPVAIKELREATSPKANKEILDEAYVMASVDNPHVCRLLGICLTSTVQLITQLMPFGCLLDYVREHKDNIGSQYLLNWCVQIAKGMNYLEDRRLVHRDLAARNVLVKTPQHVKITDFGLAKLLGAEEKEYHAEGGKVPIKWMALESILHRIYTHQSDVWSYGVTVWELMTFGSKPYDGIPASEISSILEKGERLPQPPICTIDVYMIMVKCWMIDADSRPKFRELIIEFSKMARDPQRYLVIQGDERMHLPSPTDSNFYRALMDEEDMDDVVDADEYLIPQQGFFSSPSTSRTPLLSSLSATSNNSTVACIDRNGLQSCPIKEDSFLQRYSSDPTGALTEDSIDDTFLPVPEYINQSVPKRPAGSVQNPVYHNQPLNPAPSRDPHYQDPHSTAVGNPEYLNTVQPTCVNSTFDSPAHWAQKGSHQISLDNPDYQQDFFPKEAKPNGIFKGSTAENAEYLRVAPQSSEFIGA

Take `COc1cc2nc(C)nc(NC(C)c3cc4ccccc4o3)c2cc1OC` (stereo not drawn) [Example 20, N-[1-(1-benzofuran-2-yl)ethyl]-6,7-dimethoxy-2-methylquinazolin-4-amine]: the values for the IC50 in test [1] and in test [2] were greater than 20 µM and 8.42 µM, respectively.
With `COc1cc2nc(C)nc(NC(C)c3ccc(-c4ccccc4CNCC(=O)N4CCOCC4)s3)c2cc1OC` (stereo not drawn) [Example 285, 2-{[2-(5-{1-[(6,7-dimethoxy-2-methylquinazolin-4-yl)amino]ethyl}thiophen-2-yl)benzyl]amino}-1-(morpholin-4-yl)ethanone], the IC50 is greater than 20 µM in test [1] and 0.203 µM in test [2].
Taken in the same sequence, the figures for `COc1cc2nc(C)nc(NC(C)c3ccc(-c4ccc(F)cc4CNC(=O)c4cc[nH]n4)s3)c2cc1OC` (stereo not drawn) [Example 310, N-[2-(5-{1-[(6,7-dimethoxy-2-methylquinazolin-4-yl)amino]ethyl}thiophen-2-yl)-5-fluorobenzyl]-1H-pyrazole-3-carboxamide] were greater than 20 µM and 5.82 µM.
In the case of `COc1cc2nc(C)nc(NC(C)c3cncc4sccc34)c2cc1OC` (stereo not drawn) [Example 332, 6,7-dimethoxy-2-methyl-N-[1-(thieno[2,3-c]pyridin-4-yl)ethyl]quinazolin-4-amine], the IC50 in test [1] is greater than 20 µM; in test [2], 2.25 µM.
Taken in the same sequence, the figures for `COc1cc2nc(C)nc(N[C@H](C)c3cccc(-c4ccc(F)cc4CN)c3)c2cc1OC` [Example 274, N-{(1R)-1-[2′-(aminomethyl)-4′-fluorobiphenyl-3-yl]ethyl}-6,7-dimethoxy-2-methylquinazolin-4-amine] were greater than 20 µM and 0.13 µM.
As for `COc1cc2nc(C)nc(NC(C)c3ccc(-c4ccccc4CNCCO)s3)c2cc1OC` (stereo not drawn) [Example 297, 2-{[2-(5-{1-[(6,7-dimethoxy-2-methylquinazolin-4-yl)amino]ethyl}thiophen-2-yl)benzyl]amino}ethanol], the IC50 in test [1] is greater than 20 µM; in test [2], 0.046 µM.
In the same order, the values of `COc1cc2nc(C)nc(NC(C)c3ccc(-c4ccccc4C(C)=O)s3)c2cc1OC` (stereo not drawn) [Example 324, 1-[2-(5-{1-[(6,7-dimethoxy-2-methylquinazolin-4-yl)amino]ethyl}thiophen-2-yl)phenyl]ethanone] are greater than 20 µM and 1.29 µM.
In the same order, the values of `COc1cc2nc(C)nc(NC(C)c3ccc4c(c3)OCCO4)c2cc1OC` (stereo not drawn) [Example 19, N-[1-(2,3-dihydro-1,4-benzodioxin-6-yl)ethyl]-6,7-dimethoxy-2-methylquinazolin-4-amine] are greater than 20 µM and 7.78 µM.
In the case of `COc1cc2nc(C)nc(NC(C)c3cc(-c4ccn(CCN5CCCC5)n4)cs3)c2cc1OC` (stereo not drawn) [Example 267, 6,7-dimethoxy-2-methyl-N-[1-(4-{1-[2-(pyrrolidin-1-yl)ethyl]-1H-pyrazol-3-yl}thiophen-2-yl)ethyl]quinazolin-4-amine], the IC50 in test [1] was greater than 20 µM; in test [2] it was 3.39 µM.
Turning to `COc1cc2nc(C)nc(NC(C)c3ccc(-c4ccc(F)cc4CNC(=O)c4cnc[nH]4)s3)c2cc1OC` (stereo not drawn) [Example 294, N-[2-(5-{1-[(6,7-dimethoxy-2-methylquinazolin-4-yl)amino]ethyl}thiophen-2-yl)-5-fluorobenzyl]-1H-imidazole-5-carboxamide], the IC50 was greater than 20 µM in test [1] and 3.1 µM in test [2].
With `COc1cc2nc(C)nc(NC(C)c3ccc(-c4ccc(F)cc4CNC(=O)CNc4ccccc4)s3)c2cc1OC` (stereo not drawn) [Example 299, N-[2-(5-{1-[(6,7-dimethoxy-2-methylquinazolin-4-yl)amino]ethyl}thiophen-2-yl)-5-fluorobenzyl]-N^2-phenylglycinamide], the figures for the IC50 in test [1] and in test [2] were greater than 20 µM and 0.948 µM, respectively.
Take `COc1cc2nc(C)nc(NC(C)c3c(F)ccc4[nH]ncc34)c2cc1OC` (stereo not drawn) [Example 18, N-[1-(5-fluoro-1H-indazol-4-yl)ethyl]-6,7-dimethoxy-2-methylquinazolin-4-amine]: the IC50 was greater than 20 µM in test [1] and 6.5 µM in test [2].
